Source: US7674457B2, “Methods for enhancing neuroprotection via administration of stem cells and blood brain barrier permeabilizers” (University of South Florida, priority 2003, dated 2010)

Key:
GDNF, NGF, and BDNF = test: Blood levels of trophic factors by ELISA at day 3 after stroke; type: in vivo, Sprague-Dawley rats; conditions: intravenous
Protocol: Finally, the blood levels of GDNF, NGF, and BDNF were measured to further determine the source of trophic factors. Additional stroke animals (n=6 per group) were subjected to the same surgical/drug regimen as above and were euthanized at day 3 after stroke.

trophic factors = test: Trophic factors in peripheral organs (kidneys, lungs, spleens) of stroke animals; type: in vivo, Sprague-Dawley rats; conditions: intravenous, lungs, and spleens

## OC[C@@H](O)[C@@H](O)[C@H](O)[C@H](O)CO [mannitol]
GDNF, NGF, and BDNF
  trophic factors in circulating blood: no detectable levels
Trophic factors
  elevation of trophic factors in peripheral organs, above controls: 8%
